In data set [1] the test system is Spodoptera littoralis. The data set is described as follows: Spodoptera littoralis (Egyptian cotton leaf worm) cotton leaf disc spray test, L1 larvae. The class given is in vivo. Conditions: foliar, 72 h, application rate of 200 ppm, 3 days after infestation, in comparison to untreated samples, read-out: control (at least one of mortality, anti-feedant effect, and growth inhibition). As for the experimental part: Spodoptera littoralis (Egyptian Cotton Leaf Worm)
Cotton leaf discs were placed on agar in 24-well microtiter plates and sprayed with aqueous test solutions prepared from 10,000 ppm DMSO stock solutions. After drying, the leaf discs were infested with five L1 larvae. The samples were assessed for mortality, anti-feedant effect, and growth inhibition in comparison to untreated samples 3 days after infestation. Control of Spodoptera littoralis by a test sample is when at least one of mortality, anti-feedant effect, and growth inhibition is higher than the untreated sample.

The test system of data set [2] is Diabrotica balteata. The experiment in a line: Diabrotica balteata (corn root worm) maize sprout spray test, L2 larvae. As to conditions: 96 h, application rate of 200 ppm, 4 days after infestation, in comparison to untreated samples, read-out: effect in at least one of the two categories (mortality or growth inhibition). The class given is in vivo. The method, then: Diabrotica balteata (Corn Root Worm)
Maize sprouts, placed on an agar layer in 24-well microtiter plates were treated with aqueous test solutions prepared from 10,000 ppm DMSO stock solutions by spraying. After drying, the plates were infested with L2 larvae (6 to 10 per well). The samples were assessed for mortality and growth inhibition in comparison to untreated samples 4 days after infestation.

The test system of data set [3] is Plutella xylostella. The experiment in a line: Plutella xylostella (diamond back moth) artificial diet test, L2 larvae. The class given is in vivo. As to conditions: 120 h, application rate of 200 ppm, 5 days after infestation, in comparison to untreated samples, read-out: effect in at least one of the two categories (mortality or growth inhibition). The method, then: Plutella xylostella (Diamond Back Moth)
24-well microtiter plates with artificial diet were treated with aqueous test solutions prepared from 10,000 ppm DMSO stock solutions by pipetting. After drying, the plates were infested with L2 larvae (10 to 15 per well). The samples were assessed for mortality and growth inhibition in comparison to untreated samples 5 days after infestation.

8 molecules from patent US10336691B2, “Pesticidally active oxime and hydrazone derivatives” (Syngenta Participations AG, priority 2015, dated 2019) can be followed below.

What is called melting point is the temperature, or range, at which the solid turns liquid. Molecule `C/C(=N\Nc1ccc(/C=N/NC(=O)Nc2c(C)cccc2C)cc1)c1ccccc1OC(F)(F)F` came in with a melting point of 215 to 224 °C.
By mortality is commonly meant the share of the test organisms that died. Consider `Cc1cccc(C)c1NC(=S)N/N=C/c1ccc(N/N=C2\CCc3cc(OC(F)(F)F)ccc32)cc1` [Compound 11, 1-(2,6-dimethylphenyl)-3-[[4-[2-[5-(trifluoromethoxy)indan-1-ylidene]hydrazino]phenyl]methylene-amino]thiourea], for which, in data set [1], the mortality at 200 ppm is no less than 80%. In addition, the percent effect (mortality or growth inhibition) at 200 ppm in data set [2] and in data set [3] was no less than 80% each time.
Consider `C/C(=N\Nc1ccc(/C=N/NC(=S)Nc2ccccc2C(C)C)cc1)c1ccc(C(F)(F)F)cc1` [Compound 20, 1-(2-isopropylphenyl)-3-[(E)-[4-[(2E)-2-[1-[4-(trifluoromethyl)phenyl]ethylidene] hydrazino]phenyl]methyleneamino] thiourea], for which, in data set [1], the mortality at 200 ppm is no less than 80%. Further, the percent effect (mortality or growth inhibition) at 200 ppm in data set [2] and in data set [3] was no less than 80% in each case.
With `C/C(=N\Nc1ccc(/C=N/NC(=O)Nc2c(C)cccc2C)cc1)c1ccc(C(F)(F)F)cc1` [Compound 21, 1-(2,6-dimethylphenyl)-3-[(E)-[4-[(2E)-2-[1-[4-(trifluoromethyl)phenyl]ethylidene] hydrazino]phenyl]methyleneamino] urea], the mortality at 200 ppm in data set [1] was no less than 80%. In addition, the percent effect (mortality or growth inhibition) at 200 ppm in data set [2] and in data set [3] was no less than 80% throughout.
For the molecule `C/C(=N\Nc1ccc(/C=N/NC(=S)Nc2c(C)cccc2C)cc1)c1ccc(C(F)(F)F)cc1` [Compound 22, 1-(2,6-dimethylphenyl)-3-[(E)-[4-[(2E)-2-[1-[4-(trifluoromethyl)phenyl]ethylidene] hydrazino]phenyl]methyleneamino] thiourea], in data set [1], the mortality at 200 ppm is no less than 80%. Also, the percent effect (mortality or growth inhibition) at 200 ppm in data set [2] and in data set [3] was no less than 80% each time.
Consider `CC/C(=N\Nc1ccc(/C=N/NC(=S)Nc2ccccc2C(C)C)cc1)c1ccc(C(F)(F)F)cc1` [Compound 26, 1-(2-isopropylphenyl)-3-[(E)-[4-[(2E)-2-[1-[4-(trifluoromethyl)phenyl]propylidene] hydrazino]phenyl]methyleneamino] thiourea], for which, in data set [1], the mortality at 200 ppm was no less than 80%. In addition, the percent effect (mortality or growth inhibition) at 200 ppm in data set [2] and in data set [3] was no less than 80% each time.
Consider `CC/C(=N\Nc1ccc(/C=N/NC(=O)Nc2c(C)cccc2C)cc1)c1ccc(C(F)(F)F)cc1` [Compound 27, 1-(2,6-dimethylphenyl)-3-[(E)-[4-[(2E)-2-[1-[4-(trifluoromethyl)phenyl]propylidene] hydrazino]phenyl]methyleneamino] urea], for which the mortality at 200 ppm in data set [1] was no less than 80%. Also, the percent effect (mortality or growth inhibition) at 200 ppm in data set [2] and in data set [3] was no less than 80% in each case.
With `CC/C(=N\Nc1ccc(/C=N/NC(=S)Nc2c(C)cccc2C)cc1)c1ccc(C(F)(F)F)cc1` [Compound 28, 1-(2,6-dimethylphenyl)-3-[(E)-[4-[(2E)-2-[1-[4-(trifluoromethyl)phenyl]propylidene] hydrazino]phenyl]methyleneamino] thiourea], in data set [1], the mortality at 200 ppm is no less than 80%. Also, the percent effect (mortality or growth inhibition) at 200 ppm in data set [2] and in data set [3] was no less than 80% each time.
